The values that follow come from patent US20210003596A1, “CHEMILUMINESCENT ANDROSTENEDIONE CONJUGATES” (Siemens Healthcare Diagnostics Inc., priority 2017, published 2021).

Assay in all cases: Competitive chemiluminescent immunoassay (ADVIA Centaur), binding of A4-AE conjugates to antibody on solid phase
Parameters in all cases: species or system sheep; key: a “+” indicates appreciable binding of the specified A4-AE conjugate to the specified antibody; a “−” indicates no appreciable binding was observed

Experiment [1] concerns monoclonal androstenedione antibody 3H10. Particulars: binding of A4-AE conjugate to 3H10 antibody, chemiluminescence; lite reagent 20 ng/mL tracer. On the procedure:
(§1) Evaluation of A4-AE conjugates was performed using the ADVIA Centaur family of immunoassay analyzers (available from Siemens Healthcare Diagnostics Inc., Tarrytown, N.Y.) using a competitive assay format which utilizes a solid phase reagent and a lite reagent. The lite reagent comprises 20 ng/mL of an A4-AE tracer compound. The solid reagent comprises superparamagnetic beads (Dynabeads® M-270 Streptavidin available from ThermoFisher Scientific) labeled with biotinylated monoclonal anti-A4 antibody. Biotinylated sheep monoclonal androstenedione antibodies 3C3, 3H10, or 4G8 (available from Bioventix, UK) are introduced to the streptavidin coated superparamagnetic beads in order to produce solid phase particles attached to the antibody. Solid phase particles mixed with A4-AE in the absence of A4, results in solid phase binding complexes with the A4-AE compounds. When the […], competition for formation of a binding complex at each antibody occurs between A4 and A4-AE conjugates. […] Therefore, an increase in androstenedione concentration in measured samples correlates with a decrease in chemiluminescence of separated and washed solid phase particles binding complexes. Chemiluminescence of the separated solid phase particle binding complexes is induced by addition of an acidic solution (0.5% Peroxide/0.45% Nitric Acid (vol/vol)) followed by a basic solution (0.25N […]/0.45% ARQUAD® 16-50 (w/v)) and measured. Reagent volumes, concentrations, and assay parameters were otherwise identical in each experiment other than variation of the A4-AE tracer conjugate measured. Samples of androstenedione used in the lite reagent were prepared using a human serum albumin-based matrix (available from Bioresource Technology, Inc.) with the androstenedione sample concentrations shown in FIGS. 2A-2D (ng/mL).
(§2) Chemiluminescence was monitored for a variety of A4-AE conjugates. Table 2 below and the corresponding FIGS. 2A-2D summarize the results of chemiluminescent experiments on several A4-AE conjugates which may be synthesized as described in the indicated Example number. In Table 3 a “+” indicates appreciable binding of the specified A4-AE conjugate to the specified antibody and a “−” indicates no appreciable binding was observed.

Experiment [2] deals with monoclonal androstenedione antibody 4G8. To be noted: binding of A4-AE conjugate to 4G8 antibody, chemiluminescence; lite reagent 20 ng/mL tracer. The protocol: as §1, §2
Experiment [3] relates to monoclonal androstenedione antibody 3C3. To be noted: binding of A4-AE conjugate to 3C3 antibody, chemiluminescence; lite reagent 20 ng/mL tracer. On the procedure:
as §1, §2

As to `Cc1cc(C(=O)NCCC[N+](C)(CCCNC(=O)CON=C2CCC3C4CCC5=CC(=O)CCC5(C)C4CCC23C)CCCS(=O)(=O)[O-])cc(C)c1OC(=O)c1c2ccccc2[n+](CCCS(=O)(=O)[O-])c2ccccc12` (stereo not drawn) [compound 2, A4(17)-CMO-Z-ZAE], in experiment [1], the 3H10 entry was “−”. In addition, the 4G8 entry in experiment [2] is given as “−”. Further, the 3C3 entry in experiment [3] is “−”.
Regarding `Cc1cc(C(=O)NCCC[N+](C)(CCCNC(=O)COC[C@]23CCC(=O)C=C2CCC2C3CC[C@]3(C)C(=O)CCC23)CCCS(=O)(=O)[O-])cc(C)c1OC(=O)c1c2ccccc2[n+](CCCS(=O)(=O)[O-])c2ccccc12` (stereo partly drawn) [compound 3, A4(19)-CME-NH-Z-ZAE], the 3H10 entry in experiment [1] is “+”. Besides, the 4G8 entry in experiment [2] was “+”. In experiment [3], the 3C3 entry was “−”.
On to `Cc1cc(C(=O)NCCC[N+](C)(CCCNC(=O)CCC(=O)OC2CC3C4CCC(=O)C4(C)CCC3C3(C)CCC(=O)C=C23)CCCS(=O)(=O)[O-])cc(C)c1OC(=O)c1c2ccccc2[n+](CCCS(=O)(=O)[O-])c2ccccc12` (stereo not drawn) [compound 4, A4(6β)-hemisuccinate-NH-Z-ZAE], for which the 3H10 result in experiment [1] is “+”. In addition, in experiment [2], the 4G8 entry is listed as “+”. For the same molecule, in experiment [3], the 3C3 result is given as “+”.
On to `Cc1cc(C(=O)NCCC[N+](C)(CCCNC(=O)OC2CC3C4CCC(=O)C4(C)CCC3C3(C)CCC(=O)C=C23)CCCS(=O)(=O)[O-])cc(C)c1OC(=O)c1c2ccccc2[n+](CCCS(=O)(=O)[O-])c2ccccc12` (stereo not drawn) [compound 5, A4(6β)-carbamate-NH-Z-ZAE], for which, in experiment [1], the 3H10 entry is reported as “−”. Besides, the 4G8 result in experiment [2] is given as “−”. Besides, the 3C3 entry in experiment [3] was “−”.
`Cc1cc(C(=O)NCCC[N+](C)(CCCNC(=O)CCSC2CC3=CC(=O)CCC3(C)C3CCC4(C)C(=O)CCC4C23)CCCS(=O)(=O)[O-])cc(C)c1OC(=O)c1c2ccccc2[n+](CCCS(=O)(=O)[O-])c2ccccc12` (stereo not drawn) [compound 6, A4(7α)-CETE-NH-Z-ZAE]: the 3H10 result in experiment [1] is given as “+”. Further, the 4G8 result in experiment [2] was “+”. For the same molecule, the 3C3 result in experiment [3] is given as “+”.
Consider A4(3)-CMO-Z-ZAE [compound 1], for which, in experiment [1], the 3H10 result is listed as “+”. Moreover, in experiment [2], the 4G8 result is “−”. Besides, in experiment [3], the 3C3 result was “+”.
